Experimental data: the NIST ThermoML archive (doi:10.1016/j.jct.2007.09.011)

Experiments:
[1] = 101 kPa, Liquid
[2] = refractive index (Na D-line) (dimensionless); details: 298.15 K; 101.33 kPa; Liquid
[3] = refractive index (Na D-line) (dimensionless); xn = mol fraction of the nth substance listed; details: 298.15 K, 101 kPa, Liquid
[4] = xn = mol fraction of the nth substance listed; details: 101 kPa, Liquid

CCCCCCCC[n+]1ccn(C)c1.F[B-](F)(F)F [1-methyl-3-octylimidazolium tetrafluoroborate]
[1]
Details	mass density [kg/m3]
298.15 K	1101.08
308.15 K	1094.13
318.15 K	1087.24

Details	refractive index
[2]	1.4319

CCCCCCCC[n+]1ccn(C)c1.F[B-](F)(F)F [1-methyl-3-octylimidazolium tetrafluoroborate] + COCCO
[3]
Details	refractive index
x1 = 0.0106	1.4015
x1 = 0.0477	1.4057
x1 = 0.1083	1.4108
x1 = 0.1495	1.4134
x1 = 0.2062	1.4163
x1 = 0.2827	1.4193
x1 = 0.3204	1.4208
x1 = 0.542	1.4258
x1 = 0.7354	1.4285
x1 = 0.9632	1.4312
x1 = 0.9929	1.4318
x1 = 1	1.4319

mass density [kg/m3], [4]
Details	298.15 K	308.15 K	318.15 K
x1 = 0.0106	965.72	956.59	947.31
x1 = 0.0477	983.08	974.21	965.56
x1 = 0.1083	1004.86	996.43	987.84
x1 = 0.1495	1016.31	1007.97	999.62
x1 = 0.2062	1029.2	1021.09	1012.99
x1 = 0.2827	1042.98	1035.09	1027.25
x1 = 0.3204	1048.69	1041.05	1033.14
x1 = 0.542	1073.51	1066.16	1058.83
x1 = 0.7354	1087.07	1079.83	1072.61
x1 = 0.9632	1098.9	1092.03	1085.14
x1 = 0.9929	1098.25	1091.42	1084.47
x1 = 1	1101.08	1094.13	1087.24

CCCCCCCC[n+]1ccn(C)c1.F[B-](F)(F)F [1-methyl-3-octylimidazolium tetrafluoroborate] + COCCOCCO
Details	refractive index
[3], x1 = 1	1.4319

CCCCCCCC[n+]1ccn(C)c1.F[B-](F)(F)F [1-methyl-3-octylimidazolium tetrafluoroborate] + COCCOCCOCCO
Details	refractive index
[3], x1 = 1	1.4319

[4], x1 = 1
Details	mass density [kg/m3]
298.15 K	1101.08
308.15 K	1094.13
318.15 K	1087.24

COCCOCCO [2-(2-methoxyethoxy)ethanol]
[1]
Details	mass density [kg/m3]
298.15 K	1014.87
308.15 K	1005.99

Details	refractive index
[2]	1.4242

COCCOCCO [2-(2-methoxyethoxy)ethanol] + CCCCCCCC[n+]1ccn(C)c1.F[B-](F)(F)F
[3]
Details	refractive index
x2 = 0	1.4242
x2 = 0.0088	1.4227
x2 = 0.0165	1.4251
x2 = 0.0745	1.4271
x2 = 0.1611	1.4288
x2 = 0.2555	1.4298
x2 = 0.3459	1.4304
x2 = 0.4603	1.4308
x2 = 0.6468	1.4312
x2 = 0.8198	1.4314
x2 = 0.9227	1.4317
x2 = 0.9912	1.4318

mass density [kg/m3], [4]
Details	298.15 K	308.15 K	318.15 K
x2 = 0	1014.87	1005.99	–
x2 = 0.0088	1017.27	1008.44	999.55
x2 = 0.0165	1019.28	1010.49	1001.65
x2 = 0.0745	1032.37	1023.86	1015.33
x2 = 0.1611	1046.73	1038.56	1030.36
x2 = 0.2555	1058.05	1050.15	1042.23
x2 = 0.3459	1066.48	1058.76	1051.05
x2 = 0.4603	1075.27	1067.73	1060.25
x2 = 0.6468	1086.77	1079.5	1072.31
x2 = 0.8198	1094.83	1087.77	1080.74
x2 = 0.9227	1098.58	1091.61	1084.65
x2 = 0.9912	1100.8	1093.85	1086.95

COCCOCCOCCO [2-[2-(2-methoxyethoxy)ethoxy]ethanol]
[1]
Details	mass density [kg/m3]
298.15 K	1044.91
308.15 K	1036.11
318.15 K	1027.28

Details	refractive index
[2]	1.4362

COCCOCCOCCO [2-[2-(2-methoxyethoxy)ethoxy]ethanol] + CCCCCCCC[n+]1ccn(C)c1.F[B-](F)(F)F
[3]
Details	refractive index
x2 = 0	1.4362
x2 = 0.0122	1.4364
x2 = 0.0223	1.4366
x2 = 0.0994	1.4372
x2 = 0.2073	1.4373
x2 = 0.3192	1.4369
x2 = 0.42	1.4361
x2 = 0.5301	1.4352
x2 = 0.7153	1.4334
x2 = 0.8449	1.4325
x2 = 0.9395	1.4321
x2 = 0.992	1.432

mass density [kg/m3], [4]
Details	298.15 K	308.15 K	318.15 K
x2 = 0	1044.91	1036.11	1027.28
x2 = 0.0122	1046.7	1037.94	1029.17
x2 = 0.0223	1048.13	1039.41	1030.69
x2 = 0.0994	1057.7	1049.21	1040.84
x2 = 0.2073	1067.89	1059.71	1051.67
x2 = 0.3192	1075.71	1067.81	1060
x2 = 0.42	1081.2	1073.51	1065.88
x2 = 0.5301	1086.14	1078.64	1071.18
x2 = 0.7153	1093.01	1085.74	1078.58
x2 = 0.8449	1097.08	1089.95	1082.96
x2 = 0.9395	1099.66	1092.63	1085.72
x2 = 0.992	1100.9	1093.94	1087.05

COCCO [2-methoxyethan-1-ol]
[1]
Details	mass density [kg/m3]
298.15 K	960.05
308.15 K	950.81
318.15 K	941.45

Details	refractive index
[2]	1.4004

COCCO [2-methoxyethan-1-ol] + CCCCCCCC[n+]1ccn(C)c1.F[B-](F)(F)F
Details	refractive index
[3], x2 = 0	1.4004

[4], x2 = 0
Details	mass density [kg/m3]
298.15 K	960.05
308.15 K	950.81
318.15 K	941.45
